Reference: patent US20150105252A1, “SUBSTITUTED PYRAZOLES AS HERBICIDES” (E I DU PONT DE NEMOURS AND COMPANY, priority 2013, published 2015)

Assays:
[1] = system: barnyardgrass; experiment: Test A preemergence; format: in vivo, Echinochloa crus-galli; conditions: preemergence
In short: (§1)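 Visual injury rating, 0–100 (0 no effect, 100 complete control), vs untreated controls ~10 days after treatment in greenhouse. Pre: directed soil spray on seeded loam/sand. Post: 2–10 cm plants, 1–2 leaf stage. Formulation: non-phytotoxic solvent mix + surfactant.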

[2] = system: corn; experiment: Test A preemergence; format: in vivo, Zea mays; conditions: preemergence
In short: as §1

[3] = system: barnyardgrass; experiment: Test A postemergence; format: in vivo, Echinochloa crus-galli
In short: as §1

[4] = system: velvetleaf; experiment: Test A postemergence; format: in vivo, Abutilon theophrasti
In short: as §1

[5] = system: wheat; experiment: Test A postemergence; format: in vivo, Triticum aestivum
In short: as §1

[6] = system: sedge, umbrella; experiment: Test B flood; format: in vivo, Cyperus difformis; conditions: 250 g ai/ha, visual rating on 0 to 100 scale (0 no effect, 100 complete control), 13 to 15 days
In short: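 At two leaves, seedlings received the test compound via the paddy water, pots having been flooded 3 cm over the soil surface and kept so. Greenhouse-held for 13 to 15 days, then judged by eye against controls on a scale running 0 (no effect) to 100 (complete control).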

[7] = system: ryegrass, Italian; experiment: Test C preemergence; format: in vivo, Lolium multiflorum; conditions: for Plant response rating (scale of 0 to 100), Ryegrass, Italian: Preemergence; for Ryegrass, Italian plant response rating / Plant response rating, Ryegrass, Italian: preemergence; for Plant response rating, Ryegrass, Italian: scale 0 to 100, 0 = no effect, 100 = complete control
In short: (§2)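 Scores of 0 (no effect) to 100 (complete control) were assigned by eye after 13–15 days, comparing treated pots with controls. Soil-applied (preemergence) treatments went onto seeds in loam and sand; foliar (postemergence) treatments onto 1- to 4-leaf plants in peat medium.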

[8] = system: pigweed; experiment: Test C preemergence; format: in vivo, Amaranthus retroflexus; conditions: for Plant response rating (scale of 0 to 100), Pigweed: Preemergence; for Pigweed plant response rating / Plant response rating, Pigweed: preemergence; for Plant response rating, Pigweed: scale 0 to 100, 0 = no effect, 100 = complete control
In short: as §2

[9] = system: soybean; experiment: Test C preemergence; format: in vivo, Glycine max; conditions: for Plant response rating (scale of 0 to 100), Soybean: Preemergence; for Soybean plant response rating / Plant response rating, Soybean: preemergence; for Plant response rating, Soybean: scale 0 to 100, 0 = no effect, 100 = complete control
In short: as §2

[10] = system: waterhemp; experiment: Test C preemergence; format: in vivo, Amaranthus rudis; conditions: for Plant response rating (scale of 0 to 100), Waterhemp: Preemergence; for Waterhemp plant response rating / Plant response rating, Waterhemp: preemergence; for Plant response rating, Waterhemp: scale 0 to 100, 0 = no effect, 100 = complete control
In short: as §2

[11] = system: ryegrass, Italian; experiment: Test C postemergence; format: in vivo, Lolium multiflorum; conditions: for Plant response rating (scale of 0 to 100 where 0 is no effect and 100 is complete control), Ryegrass, Italian: Postemergence, 31 g ai/ha, visually evaluated after 13 to 15 days; for Ryegrass, Italian plant response rating / Plant response rating, Ryegrass, Italian: postemergence; for Ryegrass, Italian plant response rating: 62 g ai/ha, scale 0 to 100
In short: as §2

[12] = system: johnsongrass; experiment: Test C postemergence; format: in vivo, Sorghum halepense; conditions: for Plant response rating (scale of 0 to 100 where 0 is no effect and 100 is complete control), Johnsongrass: Postemergence, 31 g ai/ha, visually evaluated after 13 to 15 days; for Johnsongrass plant response rating / Plant response rating, Johnsongrass: postemergence; for Johnsongrass plant response rating: 62 g ai/ha, scale 0 to 100
In short: as §2

[13] = system: oat, wild; experiment: Test C postemergence; format: in vivo, Avena fatua; conditions: for Plant response rating (scale of 0 to 100 where 0 is no effect and 100 is complete control), Oat, Wild: Postemergence, 31 g ai/ha, visually evaluated after 13 to 15 days; for Oat, Wild plant response rating / Plant response rating, Oat, Wild: postemergence; for Oat, Wild plant response rating: 62 g ai/ha, scale 0 to 100
In short: as §2

[14] = 125 g ai/ha, visual injury, 0 to 100 scale, approx. 10 days
[15] = 500 g ai/ha, visual injury after approx. 10 days, 0 to 100 scale (0 no effect, 100 complete control)
[16] = Postemergence, 500 g ai/ha, visual rating after approx. 10 days, 0 to 100 scale (0 no effect, 100 complete control)
[17] = postemergence, 125 g ai/ha, about 10 days, visual rating on 0 to 100 scale (0 no effect, 100 complete control)
[18] = 31 g ai/ha, visual rating, scale 0 to 100 (0 no effect, 100 complete control), 13 to 15 days
[19] = 62 g ai/ha, scale 0 to 100 (0 no effect, 100 complete control), 13 to 15 days
[20] = 125 g ai/ha, scale 0 to 100, 0 is no effect, 100 is complete control
[21] = 250 g ai/ha, scale 0 to 100 (0 no effect, 100 complete control)
[22] = 125 g ai/ha, scale 0 to 100, 0 no effect, 100 complete control
[23] = Postemergence, 500 g ai/ha, 0 to 100 scale (0 no effect, 100 complete control)
[24] = 250 g ai/ha, scale 0 to 100, 0 is no effect, 100 is complete control

CCCNC(=O)c1cc(CC)n(Cc2nc(C(F)(F)F)nn2C)n1 [Compound 109]
Barnyardgrass plant response rating [1, 14]: 100 | Barnyardgrass plant response rating [1, 15]: 100 | Corn plant response rating [2, 14]: 60 | Corn plant response rating [2, 15]: 80 | Barnyardgrass plant response rating [3, 16]: 90 | Barnyardgrass plant response rating [3, 17]: 90 | Velvetleaf plant response rating [4, 16]: 90 | Velvetleaf plant response rating [4, 17]: 60 | Wheat plant response rating [5, 16]: 80 | Wheat plant response rating [5, 17]: 50 | Plant response rating, Sedge, Umbrella [6]: 0 | Plant response rating (scale of 0 to 100), Ryegrass, Italian ([7]; 250 g ai/ha): 100 | Ryegrass, Italian plant response rating [7, 18]: 10 | Ryegrass, Italian plant response rating [7, 19]: 50 | Ryegrass, Italian plant response rating [7, 20]: 100 | Plant response rating (scale of 0 to 100), Pigweed ([8]; 250 g ai/ha): 100 | Pigweed plant response rating [8, 18]: 70 | Pigweed plant response rating [8, 19]: 100 | Pigweed plant response rating [8, 20]: 100 | Plant response rating (scale of 0 to 100), Soybean ([9]; 250 g ai/ha): 98 | Soybean plant response rating [9, 18]: 70 | Soybean plant response rating [9, 19]: 95 | Soybean plant response rating [9, 20]: 98 | Plant response rating (scale of 0 to 100), Waterhemp ([10]; 250 g ai/ha): 100 | Waterhemp plant response rating [10, 18]: 75 | Waterhemp plant response rating [10, 19]: 100 | Waterhemp plant response rating [10, 20]: 100 | Plant response rating (scale of 0 to 100 where 0 is no effect and 100 is complete control), Ryegrass, Italian [11]: 5 | Ryegrass, Italian plant response rating [11]: 5 | Plant response rating, Ryegrass, Italian [11, 21]: 10 | Plant response rating, Ryegrass, Italian [11, 22]: 5 | Plant response rating (scale of 0 to 100 where 0 is no effect and 100 is complete control), Johnsongrass [12]: 5 | Johnsongrass plant response rating [12]: 5 | Plant response rating, Johnsongrass [12, 21]: 10 | Plant response rating, Johnsongrass [12, 22]: 5 | Plant response rating (scale of 0 to 100 where 0 is no effect and 100 is complete control), Oat, Wild [13]: 0 | Oat, Wild plant response rating [13]: 5 | Plant response rating, Oat, Wild [13, 21]: 5 | Plant response rating, Oat, Wild [13, 22]: 5

CCOc1cc(C(=O)NCC(F)(F)F)nn1Cc1ccnc(OC(F)F)c1 [Compound 128]
Barnyardgrass plant response rating [1, 14]: 100 | Barnyardgrass plant response rating [1, 15]: 100 | Barnyardgrass plant response rating [3, 23]: 100 | Barnyardgrass plant response rating [3, 17]: 100 | Wheat plant response rating [5, 23]: 90 | Wheat plant response rating [5, 17]: 70 | Plant response rating, Sedge, Umbrella [6]: 90 | Plant response rating (scale of 0 to 100), Ryegrass, Italian ([7]; 250 g ai/ha): 95 | Ryegrass, Italian plant response rating [7, 18]: 5 | Ryegrass, Italian plant response rating [7, 19]: 70 | Plant response rating, Ryegrass, Italian ([7]; 125 g ai/ha, 13 to 15 days): 90 | Plant response rating (scale of 0 to 100), Pigweed ([8]; 250 g ai/ha): 100 | Pigweed plant response rating [8, 18]: 100 | Pigweed plant response rating [8, 19]: 100 | Plant response rating, Pigweed ([8]; 125 g ai/ha, 13 to 15 days): 100 | Plant response rating (scale of 0 to 100), Soybean ([9]; 250 g ai/ha): 90 | Soybean plant response rating [9, 18]: 35 | Soybean plant response rating [9, 19]: 55 | Plant response rating, Soybean ([9]; 125 g ai/ha, 13 to 15 days): 80 | Plant response rating (scale of 0 to 100), Waterhemp ([10]; 250 g ai/ha): 100 | Waterhemp plant response rating [10, 18]: 100 | Waterhemp plant response rating [10, 19]: 100 | Plant response rating, Waterhemp ([10]; 125 g ai/ha, 13 to 15 days): 100 | Plant response rating (scale of 0 to 100 where 0 is no effect and 100 is complete control), Ryegrass, Italian [11]: 5 | Ryegrass, Italian plant response rating [11]: 10 | Plant response rating, Ryegrass, Italian [11, 21]: 30 | Plant response rating, Ryegrass, Italian [11, 22]: 15 | Plant response rating (scale of 0 to 100 where 0 is no effect and 100 is complete control), Johnsongrass [12]: 5 | Johnsongrass plant response rating [12]: 5 | Plant response rating, Johnsongrass [12, 21]: 10 | Plant response rating, Johnsongrass [12, 22]: 5 | Plant response rating (scale of 0 to 100 where 0 is no effect and 100 is complete control), Oat, Wild [13]: 5 | Oat, Wild plant response rating [13]: 10 | Plant response rating, Oat, Wild [13, 21]: 20 | Plant response rating, Oat, Wild [13, 22]: 25

CCCc1cc(C(=O)NC2CC2)nn1Cc1ccnc(OC(F)F)c1 [Compound 205]
Barnyardgrass plant response rating (0 to 100 scale, 0 is no effect, 100 is complete control) ([1]; 125 g ai/ha, visual injury approx. 10 days after treatment): 90 | Barnyardgrass plant response rating [1, 15]: 100 | Barnyardgrass plant response rating [3, 23]: 90 | Barnyardgrass plant response rating [3, 17]: 80 | Wheat plant response rating ([5]; Postemergence, 125 g ai/ha, 0 to 100 scale, 0 no effect, 100 complete control): 70 | Wheat plant response rating [5, 23]: 90 | Plant response rating, Sedge, Umbrella [6]: 100 | Ryegrass, Italian plant response rating [7, 18]: 60 | Ryegrass, Italian plant response rating [7, 19]: 70 | Plant response rating, Ryegrass, Italian ([7]; 125 g ai/ha, 13 to 15 days): 90 | Ryegrass, Italian plant response rating [7, 24]: 95 | Pigweed plant response rating [8, 18]: 95 | Pigweed plant response rating [8, 19]: 100 | Plant response rating, Pigweed ([8]; 125 g ai/ha, 13 to 15 days): 100 | Pigweed plant response rating [8, 24]: 100 | Soybean plant response rating [9, 18]: 80 | Soybean plant response rating [9, 19]: 85 | Plant response rating, Soybean ([9]; 125 g ai/ha, 13 to 15 days): 100 | Soybean plant response rating [9, 24]: 100 | Waterhemp plant response rating [10, 18]: 100 | Waterhemp plant response rating [10, 19]: 100 | Plant response rating, Waterhemp ([10]; 125 g ai/ha, 13 to 15 days): 100 | Waterhemp plant response rating [10, 24]: 100 | Plant response rating, Ryegrass, Italian [11, 21]: 5 | Plant response rating, Ryegrass, Italian [11, 22]: 5 | Plant response rating (scale of 0 to 100 where 0 is no effect and 100 is complete control), Johnsongrass [12]: 5 | Johnsongrass plant response rating [12]: 10 | Plant response rating, Johnsongrass [12, 21]: 45 | Plant response rating, Johnsongrass [12, 22]: 20 | Plant response rating (scale of 0 to 100 where 0 is no effect and 100 is complete control), Oat, Wild [13]: 5 | Oat, Wild plant response rating [13]: 5 | Plant response rating, Oat, Wild [13, 21]: 10 | Plant response rating, Oat, Wild [13, 22]: 5
